“Also recorded” adds a separate entry of the source.

We go through four compounds from US12502388B2, “Lanthionine synthetase C-like 2-based therapeutics” (NImmune Biopharma, Inc., priority 2014, dated 2025).

The target of assay [1] is T1, LANCL2 (Homo sapiens, UniProt Q9NS86).
T1 sequence (Q9NS86 1-450): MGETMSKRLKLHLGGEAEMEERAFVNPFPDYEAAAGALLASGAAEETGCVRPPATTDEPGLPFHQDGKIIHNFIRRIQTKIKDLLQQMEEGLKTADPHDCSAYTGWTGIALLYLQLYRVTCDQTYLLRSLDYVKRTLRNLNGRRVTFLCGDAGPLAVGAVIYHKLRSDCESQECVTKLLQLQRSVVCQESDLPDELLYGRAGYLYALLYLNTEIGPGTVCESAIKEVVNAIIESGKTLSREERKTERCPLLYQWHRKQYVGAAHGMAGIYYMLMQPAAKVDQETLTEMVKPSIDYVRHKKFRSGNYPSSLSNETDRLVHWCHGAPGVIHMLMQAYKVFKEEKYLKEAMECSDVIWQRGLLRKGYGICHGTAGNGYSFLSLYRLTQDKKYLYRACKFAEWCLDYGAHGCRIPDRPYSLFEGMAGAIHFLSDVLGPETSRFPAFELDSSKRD
As to the kind of experiment: Surface plasmon resonance (BIACORE T200) binding to immobilized LANCL2. Conditions: for Kd: unit inferred, read-out: SPR KD value. The source says: Kinetic determination of LANCL2-small molecule interaction. […] Data were generated in a dose dependent (5-8 titration points) manner in triplicate, and analyzed to determine binding model (Langmuir, conformational shift, etc.), real time associated and disassociation constants, and equilibrium dissociation constant. SPR technology allowed validation of specific LANCL2-phytochemical interactions as well as to gain gold-standard insight into mechanism and rate of binding. The experiments were performed on carboxymethyldextran (CM5) sensor chips by covalently attaching LANCL2 to by amine coupling. Flow cells 1 and 2 of the sensor chip were activated for 720 sec at 10 μl/min with of 1:1 mixture of 0.1 M N-hydroxysuccinimide (NHS) and 0.5 M 1-ethyl-3-(−3-dimethylaminopropyl)-carbodiimide hydrochloride (EDC). Stock LANCL2 (0.41 mg/mL) was diluted to 8.2 μg/mL (1:50 dilution) in 10 mM sodium acetate, pH 5.0 and injected over the activated flow cell 2 surface for 1000 sec at a flow rate of 10 μl/min. After the capture of LANCL2 on flow cell 2 (11000 RU), surfaces of flow cells 1 and 2 were deactivated by injecting 1M ethanolamine for 720 sec at 10 μl/min. The running buffer was 25 mM MOPS containing 0.05% T-20 and 0.15 M NaCl, pH 6.5. […] Each sample was injected for 60 sec (contact time) followed by a dissociation time of 60 sec at a flow rate of 100 μL/min. A stabilization time of 180 sec was used before the next injection. Data was analyzed with BIACORE™ T200 Evaluation Software (version 1) to determine the affinity binding constant (KD) using a 1:1 binding model.
We immobilized purified recombinant LANCL2 protein on BIACORE™ sensor chips and injected small molecules over the protein surface using the microfluidic system of the instrument. Changes in the total mass on chip surface were measured, which corresponds to the small binding to the protein. […] These fast interactions are beyond the technical abilities of the instrument. Therefore, reliable association rate constant (ka) and dissociation rate constant (kd) were not determined. The equilibrium dissociation constant (KD) is commonly used to describe the affinity between a ligand and a protein, such as how tightly a ligand binds to a particular protein. Ligand-protein affinities are influenced by non-covalent intermolecular interactions between the two molecules such as hydrogen bonding, electrostatic interactions, hydrophobic and Van der Waals forces. By plotting the equilibrium binding level against the compound concentration, we were able to measure the steady state affinity (KD) for each interaction (FIG. 8, panels B and D).
In this case we also immobilized purified recombinant LANCL2 protein on BIACORE™ sensor chips and injected small molecules over the protein surface using the microfluidic system of the instrument. Changes in the total mass on chip surface were measured, which corresponds to the small binding to the protein. […] This longer binding can potentially impact the activation of the LANCL2 pathway by triggering more efficacious anti-inflammatory and anti-diabetic and other therapeutic responses.
(SPR reads the build-up and loss of mass on a sensor chip optically.)

Assay [2] has as its system C57BL/6J mice with DSS colitis. The method, then:
Mice. […] All mice were maintained in animal facilities.
DSS-induced colitis. Colitis was induced in C57BL/6J mice by administration of 5% (w/v) dextran sodium sulfate (DSS; molecular weight 42 kDa; ICN Biochemicals, Aurora, OH) added to the drinking water. Colonic inflammation was assessed 7 days after DSS treatment. […] DSS-treated, vehicle-treated mice, and iv. […] Twelve mice were included in each group.
Quantitative Real-Time PCR. […] Primers were designed using Oligo 6 software.

Assay [3] concerns IL-10-/- mice with chronic colitis.
Assay [4] concerns RAG2-/- mice transferred with naive CD4+ T cells.
The subject of assay [5] is NOD mice.
Description: Mice. […] The mice were maintained in animal facilities.
(§1) Assessment of body weight and glucose tolerance.
The test system of assay [6] is C57BL/6 mice fed a high-fat diet.
The test system of assay [7] is db/db mice.
Description: Mice and dietary treatments. […] The mice were maintained in animal facilities.
as §1
The test system of assay [8] is mice infected with influenza virus.
Protocol: Intranasal infection of mice with influenza virus. Mice were anesthetized with 2-5% isofluorane using a vaporizer station, and 50 μL of virus dilution at 10^3 TCID50 was administered through the nostrils (25 μL each one). Mice were then placed in their cages and watched for recovery of anesthesia.
This procedure caused no pain or distress.
Monitoring of mice and disease activity and weighing. Mice were monitored once daily after the infection (or every 4 hours if they developed severe clinical signs of disease equivalent to disease score 2) and were euthanized prior to the planned endpoint if they developed significant signs of illness as measured by weight loss (i.e., 25% gradual loss of initial body weight), dehydration, loss of mobility, guarding/protection of painful area, ruffled fur (piloerection). Mice were weighed once a day for the duration of the experiment.
Setting [9] is: flow cytometry, wild-type vs LANCL2-/-.
Setting [10] is: gene expression, dose-dependent.
[11] abbreviates: CD4+ T cells from LANCL2-/- donors.
The mark [12] stands for this setting: gene expression vs untreated mice.

With `O=C(Nc1ccc(NC(=O)c2cccc(-c3nc4ccccc4[nH]3)c2)cc1)c1cccc(-c2nc3ccccc3[nH]2)c1` [BT-6], in assay [1], the “binding to LANCL2 by SPR in words” value is listed as “strongly bind”; the “on and off rates in SPR sensorgrams” value is on record as “very fast to bind but not as fast as off”.

What is called Kd is a measure of binding affinity in units of concentration. As for `O=C(c1cccc(-c2nc3ccccc3[nH]2)n1)N1CCN(C(=O)c2cccc(-c3nc4ccccc4[nH]3)n2)CC1` [BT-11], in assay [1], the “binding to LANCL2 by SPR in words” value is “strongly bind”; the “on and off rates in SPR sensorgrams” value was “very fast on rates and very fast off rates”; the Kd came to 6.3 µM. In addition, the disease activity score entry in assay [2] (5% DSS, 7-day challenge, oral BT-11 vs vehicle) was “significantly improved”. In assay [2] (10 to 80 mg/Kg), the “leukocytic infiltration, mucosal thickening and epithelial erosion, dose-response” value was “decreased in mice with colitis as the dose of BT-11 was increased”. The “histopathological lesions of the colonic mucosa in LANCL2-/- mice” value in assay [2] (LANCL2-/- mice, vehicle or BT-11) is “the loss of LANCL2 completely abrogates the effect of BT-11”. Also, the “upregulation of IL-10 secretion in colon and spleen” value in assay [2] (LANCL2 knockout mice) is “completely abrogated in LANCL2 knockout mice”. The “decrease of inflammation in the gut mucosa (leukocytic infiltration, epithelial erosion, mucosal thickening)” value in assay [2] (colonic histopathology) was found to be 5 times. The “macroscopic lesions in spleen, MLNs and colon” value in assay [2] (day 7 post-challenge) is reported as “significantly decreased”. Also, the “colonic IL-10 expression by flow cytometry” value in assay [2] (dose-response study) is reported as “follows dose-response dynamics”. Moreover, in assay [2] (dose-response study, flow cytometry), the “FOXP3 expression in the MLN” value is given as “dose-dependent”. Besides, the “upregulation of MHC-II+ CD11c+ granulocytes” value in assay [2] (flow cytometry, colon, wild-type vs LANCL2-/-) is given as “LANCL2-dependent”. For the same compound, the “reduction of colonic TNFα expressing cells” value in assay [2] (flow cytometry, doses 10, 20, 40, 80 mg/Kg) was “significantly different at both 40 and 80 mg/Kg of BT-11, but not on lower doses”. For the same compound, in assay [2] (setting [9]), the “reduction of MCP1 in colon and MLN” value is recorded as “LANCL2-dependent”; the “secretion of TNFα in the colon” value is “LANCL2-dependent”. Also, in assay [2] (mouse, in vivo), the “colonic gene expression of IL-10” value is given as “upregulated”, the “colonic gene expression of LANCL2” value is on record as “upregulated” and the “colonic gene expression of TNFα” value is on record as “down-regulated”. Also, the “macroscopic score in colon, MLN and spleen in LANCL2-/- mice” value in assay [2] (wild-type vs LANCL2-/- littermates) was “the loss of LANCL2 abrogated the decrease in macroscopic score”. Moreover, the “recovery from colitis (disease activity index) in LANCL2-/- mice” value in assay [2] (wild-type vs LANCL2-/- mice) is reported as “the loss of LANCL2 prevented the mice to recover”. The “disease activity index scores, highest dose vs lower doses” value in assay [3] (80 mg/Kg, from week 13 to end) is reported as “significantly reduced the scores in comparison to those treated with either 20 or 40 mg/Kg”. Further, the “macroscopic scores in spleen, MLNs and colon” value in assay [3] (19 weeks, concentrations as low as 20 mg/Kg) was “greatly and significantly reduced”. Besides, in assay [3] (20, 40 and 80 mg/Kg vs vehicle), the “disease activity index scores” value is reported as “significantly decreased”. Further, the “colonic histopathology (leukocytic infiltration, epithelial erosion, mucosal thickening)” value in assay [3] (H&E colon sections) is recorded as “significantly reduced inflammation”. For the same compound, in assay [3] (flow cytometry), the “FOXP3-expressing CD4+ T cells in MLN and spleen” value is “upregulation”; the “FOXP3-expressing CD4+ T cells in the colonic LP” value is listed as “upregulation”; the “effector Th17 cells (RORγt) in the MLN” value is given as “downregulated”; the “percentage of F4/80+ macrophages in colonic lamina propria” value was “significantly decreased”. In addition, in assay [3] (flow cytometry), the “percentage of MHC-II+ CD11c+ dendritic cells in colonic lamina propria” value is reported as “significantly decreased” and the “percentage of effector Th1 cells in colonic lamina propria” value was “significantly decreased”. Moreover, in assay [3] (flow cytometry, dose response), the “Th1 cells in the spleen” value was “downregulation”. In assay [3] (setting [10]), the “colonic expression of LANCL2” value is recorded as “upregulates” and the “colonic expression of TNFα” value was “downregulates”. For the same compound, the “effects on disease activity and histopathology with PPARγ-/- donor CD4+ T cells” value in assay [4] (80 mg/Kg) is “PPARγ independent”. In addition, the “macroscopic scores in spleen, MLNs, colon and ileum” value in assay [4] (80 mg/Kg, 11 weeks) was “greatly and significantly reduced”. Also, in assay [4] (setting [11]), the “decrease in leukocytic infiltration, epithelial erosion and mucosal thickening in LANCL2-/- transferred recipients” value is “greatly abrogated”; the “effect on disease activity index with LANCL2-/- donor cells” value is “completely abrogated with the loss of LANCL2”. Besides, the “macroscopic scores with loss of LANCL2” value in assay [4] (LANCL2-/- cells transferred, 80 mg/Kg) is “the loss of LANCL2 completely abrogated the effect of BT-11”. In assay [4] (flow cytometry), the “IFNγ levels in total CD45+ leukocytes in the colon” value is “decrease”; the “IL-10 in CD4+ T cells in the colonic mucosa” value is “promoting the expression”; the “expression of IFNγ in the CD45+ population in MLN and spleen” value is “decreased”; the “levels of FOXP3 and IL-10 in spleen and MLN” value is “increases”. Moreover, in assay [4] (flow cytometry), the “regulatory CD4+ T cells (FOXP3) in the colonic mucosa” value is on record as “upregulated”. For the same compound, in assay [4] (flow cytometry, 11 weeks of treatment), the “infiltrating F4/80+ CD11b+ pro-inflammatory macrophages in the colon” value is listed as “significantly lower level”. Moreover, in assay [4] (from 7 weeks until end, vs vehicle), the weight loss entry is listed as “significantly improved”. In assay [4] (histopathology), the “epithelial erosion in the colon” value is on record as “significantly lower”; the “inflammation: leukocytic infiltration and mucosal thickening in colon and ileum” value is listed as “significantly reduced inflammation”. In addition, the “disease activity index score” value in assay [4] (wild-type CD4+ T cells transferred, BT-11 vs vehicle) is “significantly reduced”. In assay [5] (12 h fasting, weeks 0-11, 80 mg/kg/d vs vehicle), the fasting blood glucose entry was “significantly lower levels”. Also, the “clinical histopathological lesions in the pancreas” value in assay [5] (vs vehicle) is “significantly reduces”. Further, in assay [5] (week 5), the “insulin levels in plasma” value is recorded as “significantly increased levels”. In assay [6] (2 g/Kg glucose IP after 12 h fasting), the “normalization of blood glucose after IP glucose challenge” value was “significantly faster”. Further, in assay [6] (flow cytometry), the “F4/80+ CD11b+ pro-inflammatory macrophages in white adipose tissue” value is on record as “significantly reduced” and the “pro-inflammatory granulocytes (GR1+Ly6chigh) in white adipose tissue” value is “significantly reduced”. Also, in assay [6] (setting [12]), the “expression of LANCL2 in WAT” value is listed as “higher expression levels”, the “mRNA level of MCP-1 in WAT” value is “significantly lower mRNA levels” and the “mRNA level of TNFα in WAT” value was “significantly lower mRNA levels”. Moreover, the fasting blood glucose result in assay [6] (week 12 of high-fat feeding, vs vehicle) is given as “significantly decreased”. The “glucose levels following glucose challenge” value in assay [7] (0 to 265 minutes after IP glucose) is “fell toward normal levels more rapidly”. The fasting blood glucose result in assay [7] (80 mg/Kg daily oral gavage, weeks 1 and 3) is “significantly decreased”. Also, in assay [7] (12-h fast), the “glucose prior to the IP glucose challenge (time 0)” value is on record as “significantly decreases”. Further, the “morbidity (mice losing over 15% of body weight)” value in assay [8] (80 mg/Kg, from day 6 post-infection, vs vehicle) is “less morbidity”. In addition, the “clinical score for physical appearance” value in assay [8] (40 and 80 mg/Kg) is reported as “significantly reduced”. In addition, the activity clinical score entry in assay [8] (from day 3, oral 80 or 40 mg/Kg daily) is given as “significantly reduced”.

Regarding `O=C(c1cccc(-c2nc3ccccc3[nH]2)n1)N1CCN(C(=O)c2cccc(-c3nc4ccccc4o3)n2)CC1` [BT-15], in assay [1], the “binding to LANCL2 by SPR in words” value is listed as “strongly bind”; the “on and off rates in SPR sensorgrams” value is “very fast on rates and very fast off rates”; the Kd was 11.4 µM.

On to `O=C1CC=C(/C=C/c2ccc(C(=O)O)o2)CC1` [BT-ABA-5a], for which, in assay [1], the “binding to LANCL2 by SPR in words” value was “strongly bind”; the “on and off rates in SPR sensorgrams” value is on record as “very fast to bind but not as fast as off; also recorded: slowest off rate”.
